Counter-ions that a name gives are not always drawn. Like-named read-outs stand apart in the source and are kept apart here.
Tested on: human washed and resuspended platelets (HRP)
Experiment: Inhibition of U-46619-induced platelet aggregation in washed human platelets (turbidometric, Born-type aggregometer)
Type: cell-based
Conditions: read-out: IC50, concentration of the compound required to inhibit platelet aggregation by 50%
Protocol: Inhibition of platelet aggregation by compounds of the invention was determined according to the following procedure. […] The blood was treated with aspirin (0.1 mM) and prostacyclin (0.06 μM) prior to centrifugation (1400 g, 4 minutes, 20° C.). The supernatant platelet-rich plasma (PRP) was isolated and further centrifuged (1400 g, 10 minutes, 20° C.) to sediment the platelets. […] This platelet suspension was centrifuged (1400 g, 8 minutes, 20° C.) and the resultant platelet pellet was resuspended into the physiological salt solution adjusted to pH 7.4. The resultant washed-platelet preparation was diluted to give a final platelet count of […]. […] Platelet aggregation was quantified using a turbidometric method.

[1] = Homo sapiens, Platelet, washed human platelets, 37° C, 5 minutes pre-incubation, agonist 1 μM U-46619, fibrinogen 0.5 mg/ml

`O=C(O)CN1CCC(c2nn(Cc3ccc(F)cc3)c3cc(/C=C/C4CCNCC4)ccc23)CC1` [6 (ii), {4-[1-(4-Fluoro-benzyl)-6-(2-piperidin-4-yl-(E)-vinyl)-1H-indazol-3-yl]-piperidin-1-yl}-acetic acid hydrochloride] was tested, and the IC50 (washed human platelets, 37° C, 5 minutes pre-incubation, agonist 1 μM U-46619, fibrinogen 0.5 mg/ml, hydrochloride) was 110 nM.

Molecule `O=C(O)CN1CCC(c2nn(Cc3ccc(Cl)cc3)c3cc(CCC4CCNCC4)ccc23)CC1` [5 (iii), {4-[1-(4-Chloro-benzyl)-6-(2piperidin-4-yl-ethyl)-1H-indazol-3-yl-piperidin-1-yl}-acetic acid trifluoroacetate] has an IC50 [1] of 80 nM.

`O=C(O)CN1CCC(c2n[nH]c3cc(/C=C/C4CCNCC4)ccc23)CC1` [2 (iv), {4-[6-(2-Piperidin-4-yl-(E)-vinyl)-1H-indazol-3-yl]-piperidin-1-yl}-aceticacid, hydrochloride hydrate] showed an IC50 (Homo sapiens, Platelet) of 67 nM.

With `O=C(O)CN1CCC(c2n[nH]c3cc(/C=C/C4CCNCC4)ccc23)CC1` [2 (ii), {4-[6-(2-Piperidin-4-yl-(E)-vinyl)-1H-indazol-3-yl]-piperidin-1-yl}-aceticacid trifluoroacetate] the IC50 [1] was 92 nM.

`O=C(O)CN1CCC(c2nn(Cc3ccc(Cl)cc3)c3cc(/C=C/C4CCNCC4)ccc23)CC1` [4 (ii), (4-{1-(4-Chloro-benzyl)-6-[2-piperidin-4-yl-(E)-vinyl]-1H-indazol-3-yl}-piperidin-1-yl)-acetic acid trifluoroacetate] gave an IC50 [1] of 72 nM.

In the case of `O=C(O)CN1CCC(c2nn(Cc3ccccc3)c3cc(/C=C/C4CCNCC4)ccc23)CC1` [7 (ii), {4-[1-Benzyl-6-(2-piperidin-4-yl-(E)-vinyl)-1H-indazol-3-yl]-piperidin-1-yl}-acetic acid trifluoroacetate], the IC50 [1] is reported as 107 nM.

In the case of `O=C(O)CN1CCC(c2nn(Cc3ccc(Cl)c(Cl)c3)c3cc(/C=C/C4CCNCC4)ccc23)CC1` [3 (ii), {4-[1-(3,4-Dichloro-benzyl)-6-(2-piperidin-4-yl-(E)-vinyl)-1H-indazol-3-yl]-piperidin-1-yl}-acetic acid trifluoroacetate], the IC50 [1] is reported as 74 nM.

Molecule `O=C(O)CN1CCC(c2nn(Cc3ccc(F)cc3)c3cc(/C=C/C4CCNCC4)ccc23)CC1` [1 (xiii), {4-[1-(4-Fluoro-benzyl)-6-(2-piperidin-4-yl-(E)-vinyl)-1H-indazol-3-yl]-piperidin-1-yl}-acetic acid trifluoroacetate] has an IC50 [1] of 126 nM.
